# In patent US20120252037A1, “STIMULATORY AUTO-ANTIBODIES TO THE PDGF RECEPTOR AS PATHOLOGY MARKER AND THERAPEUTIC TARGET” (priority 2005, published 2012):
# Where two headings read alike, the source gives them in different places. Peptide text beside a SMILES is read from it. * marks the point of attachment. Cbz = O=C(OCc1ccccc1)*
# Experiments:
# [1] = test system: Ha-Ras; assay: Ha-Ras / Ki-Ras protein levels in primary fibroblasts (immunoprecipitation, immunoblot, immunofluorescence, FACS); format: cell-based, human; settings: for effect on Ha-Ras induction by PDGF / effect on Ha Ras levels: primary fibroblasts
# Protocol: Ras proteins were immunoprecipitated from cultured fibroblasts with polyclonal anti pan Ras antibody (Santa Cruz Biotechnology, Santa Cruz, Calif.) following recommended procedures from the manufacturer.
# Fibroblasts, cultured on Lab-Tek chamber glass slides (Nalge-Nunc, Ill., USA) and starved 48 h before stimulation or addition of inhibitors, were fixed 4% para-formaldheide, permeabilized by 0.1% Triton-X, and stained with a monoclonal antibody against Ha-Ras and then with a tetramethylrhodamine-isothiocyanate (TRITC) conjugated secondary antibody (Molecular Probes, NL). Slides were mounted with Vectarshield (H-100; Vector, Burlingame, Calif.) and examined using a BioRad (Hemel Hempstead, UK) microradiance confocal laser-scanning microscope equipped with argon and helium/neon lasers. Acquired images were analysed using the Laser Sharp Processing BioRad software (version 3.2). All images from different slides condition were acquired in double-blinded fashion.
# Cells were grown to semiconfluency in 60 mm culture dishes. After trypsin detachment, 5×10^5 cells were suspended in 1 ml of phosphate buffered saline (PBS) and fixed overnight with 1% formaldehyde at room temperature. Next, cells were permeabilized with 0.1% Triton×100 for 40 min at 4° C., washed 4 times with 2 ml of PBS containing 2% FBS, 0.01% NaN3, 0.1% Triton×100 (buffer A), and incubated for 45 min at 4° C. with 1:50 dilution of monoclonal and polyclonal anti HaRas antibodies (Santa Cruz Biotechnology, Santa Cruz, Calif., USA). The cells were then washed twice with the same buffer and incubated for 45 min at 4° C. with Cy2-conjugated anti-mouse IgG antibodies (Amersham Pharmacia Biotech, Milano, Italia) at 1:50 dilution. Control cells were incubated with Cy2-conjugated anti mouse IgG antibodies alone. After two washes in buffer A, cells were resuspended in PBS and analyzed by flow cytometry using FACScan (BD, Heidelberg, Germany) and WinMDI software.
# [2] = test system: ERK1/2; assay: P-ERK1/2 immunoblot in primary fibroblasts; format: cell-based, human; settings: for effect on ERK1/2 activated by PDGF: NAC 20 mM 5 h, DPI 20 μM 1 h, FIG. 5E
# Protocol: Cell culture plates were lysed with 0.3 ml of cold RIPA buffer (1×PBS, 1% Nonidet P-40, 0.5% sodium deoxycholate, 0.1% SDS, 2 mM sodium orthovanadate, 2 μg/ml aprotinin, 1 mM PMSF) and processed for immunoblotting as described (8).
# Cell culture plates were lysed with 0.3 ml of cold RIPA buffer (1×PBS, 1% Nonidet P-40, 0.5% sodium deoxycholate, 0.1% SDS, 2 mM sodium orthovanadate, 2 μg/ml aprotinin, 1 mM PMSF) and processed as described (14).
# [3] = test system: normal human fibroblasts; assay: ROS (DCF fluorescence) in normal human fibroblasts; format: cell-based; settings: for effect on ROS induction by SSc IgG in normal fibroblasts: FIG. 2A, pre-incubation for 2 hours (AG1478 2 μM, FT-277 20 μM, PD98059 40 μM)
# Protocol: (§1) Fluorimetric determination of intracellular ROS generated by adherent fibroblasts was estimated after loading the cells with 2′,7′-dichlorofluorescein diacetate (DCFH-DA 10 μM, Molecular Probes, PoortGebouw, The Nederlands) for 15 min at 37° C. The DCF fluorescence intensity was measured by a CytoFluor plate reader (PerkinElmer, Wallac, Finland) (excitation wavelength, 485 nm; emission wavelength, 530 nm) (8). Ten measurements were made in each single well from ten distinct points and the values averaged. Each IgG sample was run in duplicate and the average has been recorded. The results are expressed as DCF fluorescence intensity calculated subtracting from the DCF fluorescence intensity of the test IgG the DCF fluorescence intensity of a negative control obtained by cell cultured without IgG. The intra-plate and the inter-plate coefficient of variation was less than 3%. The samples were recorded as positive if the SI was greater than the mean plus three standard deviations of the normal group.
# In selected experiments ROS generation was evaluated after the addition of PDGF receptor tyrosine kinase inhibitor (AG 1296; 2 μM for 2 hours), Epidermal growth factor (EGF) receptor tyrosine kinase inhibitor (AG 1478; 2 μM for 2 hours), a chemical inhibitor of ERK 1/2 signalling (PD 98059; 40 μM for 2 hours), and a farnesyl protein transferase inhibitor to block Ras farnesylation (FTI-277; 20 μM for 2 hours). AG 1296, AG 1478, PD 98059 and FTI-277 were obtained from Calbiochem (San Diego, Calif.).
# Fluorimetric determination of intracellular ROS generated by fibroblasts was estimated after loading the cells with DCFH-DA (10 μM) for 15 min at 37° C. before assessing DCF fluorescence level (15). Superoxide anion release was estimated using the superoxide dismutase-inhibitable cytochrome c reduction (12). H2O2 release from fibroblasts into the overlying medium was assayed using a modification of the method of Valletta and Berton (1987) (16). Oxidative activity imaging in living, transfected cells was evaluated as described (12, 17).
# [4] = target: T1, PDGFR (Homo sapiens, UniProt P09619); assay: Tyrosine phosphorylation of the PDGFR in normal fibroblasts; format: cell-based; settings: FIG. 2D and data not shown
# T1 construct: endogenous in cells; host or cells: normal human fibroblasts
# Protocol: Panel D. Normal human fibroblasts were stimulated with SSc IgG (200 μg/ml for 15 min), PDGF (15 ng/ml for 15 min) or grown in FCS 0.2%. Cell lysates were immunoprecipitated with a polyclonal antibody against PDGFR (subunit β) and the immunoblots were developed with a specific antibody against phosphorylated tyrosine.
# [5] = test system: Umbilical vein endothelial cells; assay: Apoptosis of umbilical vein endothelial cells (annexin V FACS); format: cell-based; settings: overnight; SSc IgG 200 μg/ml, PDGF 15 ng/ml; FIG. 3C
# Protocol: Endothelial cells will be isolated from umbilical cord. Cells were stimulated with SSc IgG (200 μg/ml), normal IgG (200 μg/ml) and PDGF (15 ng/ml) for 12 hours in the presence and in the absence of inhibitors of PDGFR and EGFR tyrosine kinase activity.
# (§2) Six hours after the removal of the stimulus, apoptosis was detected by FACS analysis using annexin V-Cy3 (Clontech, Palo Alto Calif.). Statistical analysis
# [6] = test system: PDGF receptor; assay: PDGF receptor level in primary fibroblast extracts (immunoblot); format: cell-based, human; settings: independently on ERK1/2 activation; FIG. 5D
# Protocol: D. PDGF induction of Ha-Ras is mediated by ERK1/2. Fibroblasts, incubated in 0.2% FCS for 48 h, were treated with the MEK inhibitors, PD98059 (40 μM) 2 h, before the treatment with PDGF (15 ng/ml).
# [7] = target: T2, PDGFR α subunit expressed by Fα cells (Homo sapiens, UniProt P16234); assay: Bio-assay for anti PDGFR autoantibodies: ROS production (DCF fluorescence) in Fα cells; format: cell-based, mouse; settings: pre-incubation 2 μM for 2 hours
# T2 construct: expressed in transfected cells; host or cells: mouse embryo fibroblasts from PDGF receptor knock-out embryos (F-/-) infected with PDGFR α (Fα cells)
# Protocol: Patients and control serum samples were tested for the presence of PDGFR activating autoantibodies in a functional bioassay based on the production of ROS by mouse embryo fibroblasts infected with PDGFR α and/or β subunits and exposed in vitro to immunopurified IgG. Control cells were F−/− cells devoid of PDGFR. In brief, cells were plated in duplicate at a density of 30,000 cells in 1.83-cm^2 wells and incubated for 24 hours at 37° C. in 0.2 percent fetal calf serum. The cells were then washed with phosphate-buffered saline and incubated with a pre-determined amount of control or patient IgG for 15 minutes at 37° C. before ROS production determination.
# as §1, with “Ten measurements were made in each single well from ten distinct points and the values averaged.” left out, “The intra-plate and the inter-plate coefficient of variation was less than 3%. The samples were recorded as positive if the SI was greater than the mean plus three standard deviations of the normal group.” left out
# [8] = test system: SSc fibroblasts; assay: Oxidative stress-induced apoptosis in scleroderma fibroblasts; format: cell-based, human; settings: H2O2, pre-treatment, FIG. 8C
# Protocol: Normal and scleroderma fibroblasts were grown to 80-90% confluence and treated for 2 h with different concentrations of H2O2. When needed, cells were preincubated 30 min with PD 98059 (40 μmol/L).
# as §2
# [9] = 90 min in the presence of genistein, data not shown
# T2 sequence (P16234 24-1089): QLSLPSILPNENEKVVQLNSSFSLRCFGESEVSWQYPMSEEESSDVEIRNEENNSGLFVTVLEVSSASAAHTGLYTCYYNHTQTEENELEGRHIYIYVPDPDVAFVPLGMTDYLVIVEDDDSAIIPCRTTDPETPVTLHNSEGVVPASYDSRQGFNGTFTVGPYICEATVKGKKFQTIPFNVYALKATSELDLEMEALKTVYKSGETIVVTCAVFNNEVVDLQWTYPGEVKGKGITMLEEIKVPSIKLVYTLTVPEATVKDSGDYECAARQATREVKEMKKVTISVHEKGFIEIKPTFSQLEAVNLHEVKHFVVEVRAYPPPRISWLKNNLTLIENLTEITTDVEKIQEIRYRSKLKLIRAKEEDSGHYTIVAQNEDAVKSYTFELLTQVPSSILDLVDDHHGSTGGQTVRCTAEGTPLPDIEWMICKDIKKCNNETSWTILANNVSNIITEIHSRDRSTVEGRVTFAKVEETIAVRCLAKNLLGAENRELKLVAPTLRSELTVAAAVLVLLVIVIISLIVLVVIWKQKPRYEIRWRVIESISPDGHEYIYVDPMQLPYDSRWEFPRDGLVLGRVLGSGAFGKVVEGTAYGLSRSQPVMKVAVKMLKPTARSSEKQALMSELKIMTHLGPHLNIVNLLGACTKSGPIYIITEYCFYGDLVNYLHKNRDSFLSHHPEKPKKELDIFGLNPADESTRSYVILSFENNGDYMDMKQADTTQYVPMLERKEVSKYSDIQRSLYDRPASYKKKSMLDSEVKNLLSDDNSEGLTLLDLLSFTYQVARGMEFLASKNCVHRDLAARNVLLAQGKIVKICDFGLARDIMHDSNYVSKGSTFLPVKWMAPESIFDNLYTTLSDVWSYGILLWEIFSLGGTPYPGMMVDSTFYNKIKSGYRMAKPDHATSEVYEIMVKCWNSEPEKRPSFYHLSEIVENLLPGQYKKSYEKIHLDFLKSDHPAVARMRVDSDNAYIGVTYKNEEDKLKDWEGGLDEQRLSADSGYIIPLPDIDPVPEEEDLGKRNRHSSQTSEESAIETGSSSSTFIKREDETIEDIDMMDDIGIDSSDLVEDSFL
# T1 sequence (P09619 33-1106): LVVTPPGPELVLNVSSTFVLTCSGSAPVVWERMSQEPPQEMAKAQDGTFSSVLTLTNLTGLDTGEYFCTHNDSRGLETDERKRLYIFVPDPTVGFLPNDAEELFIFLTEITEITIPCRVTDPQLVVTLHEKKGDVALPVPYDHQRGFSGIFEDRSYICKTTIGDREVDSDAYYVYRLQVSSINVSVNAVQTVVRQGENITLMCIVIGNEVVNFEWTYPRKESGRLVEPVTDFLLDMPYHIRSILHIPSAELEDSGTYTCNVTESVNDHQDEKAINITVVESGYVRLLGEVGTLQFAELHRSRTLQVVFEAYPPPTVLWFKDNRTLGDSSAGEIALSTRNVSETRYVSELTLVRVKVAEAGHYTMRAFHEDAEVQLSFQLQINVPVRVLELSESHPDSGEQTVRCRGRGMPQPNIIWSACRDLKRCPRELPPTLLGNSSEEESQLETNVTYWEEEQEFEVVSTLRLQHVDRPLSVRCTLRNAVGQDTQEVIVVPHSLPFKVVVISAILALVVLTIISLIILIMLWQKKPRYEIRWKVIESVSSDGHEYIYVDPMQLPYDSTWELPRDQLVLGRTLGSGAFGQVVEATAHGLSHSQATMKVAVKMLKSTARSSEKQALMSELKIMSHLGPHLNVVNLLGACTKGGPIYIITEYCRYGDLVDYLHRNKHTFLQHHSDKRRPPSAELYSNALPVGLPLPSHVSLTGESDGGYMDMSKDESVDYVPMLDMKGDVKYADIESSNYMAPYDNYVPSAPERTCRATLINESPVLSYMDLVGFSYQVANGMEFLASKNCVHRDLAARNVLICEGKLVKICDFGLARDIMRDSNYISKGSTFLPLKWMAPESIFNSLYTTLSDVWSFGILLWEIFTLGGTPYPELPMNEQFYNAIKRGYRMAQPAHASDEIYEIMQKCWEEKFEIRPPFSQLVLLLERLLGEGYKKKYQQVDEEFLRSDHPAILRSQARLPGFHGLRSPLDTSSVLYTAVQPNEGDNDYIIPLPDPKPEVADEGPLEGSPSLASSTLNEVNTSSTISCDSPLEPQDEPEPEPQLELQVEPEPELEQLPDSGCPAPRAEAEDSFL
compound,measurement,setting,value
"c1ccc2c(c1)[I+]c1ccccc1-2 [DPI, diphenylene iodonium]",effect on Ha-Ras induction by PDGF,[1]; PDGF 15 ng/ml,significantly inhibited
same,effect on ERK1/2 activated by PDGF,[2],sensitive
COc1cc2ncnc(Nc3cccc(Cl)c3)c2cc1OC [AG1478],effect on ROS induction by SSc IgG in normal fibroblasts,[3],prevented
same,effect on Ha-Ras induced by SSc IgG,"[1]; normal human fibroblasts, FIG. 2B, inhibitor for 2 h",slight inhibition
cyclodextrin,effect on Ha-Ras induction by PDGF,[1]; PDGF 15 ng/ml,did not abolish
CC[C@@]1([C@@H]2O[C@@H]([C@H]3O[C@@](O)(CO)[C@H](C)C[C@@H]3C)C[C@@H]2C)CC[C@H]([C@]2(C)CC[C@]3(C[C@H](O)[C@@H](C)[C@@H]([C@@H](C)[C@@H](OC)[C@H](C)C(=O)O)O3)O2)O1 [monensin],effect on Ha Ras levels,[1]; FIG. 6E,no effect
"CC(=O)N[C@@H](CS)C(=O)O [NAC, N-acetyl-L-cysteine]",effect on Ha-Ras induction by PDGF,[1]; PDGF 15 ng/ml,significantly inhibited
same,effect on ERK1/2 activated by PDGF,[2],sensitive
C[C@@H]1C[C@@H]([C@H](O)CC2CC(=O)NC(=O)C2)C(=O)[C@@H](C)C1 [cycloheximide],effect on Ha-Ras induction by PDGF,[1]; PDGF 15 ng/ml,did not prevent
OO [H2O2],Ha Ras induction in the presence of genistein,[1]; FIG. 6D,powerful inducer
N#CC(=C(/N)Sc1ccccc1N)/C(C#N)=C(\N)Sc1ccccc1N [U0126],effect on induction of Ha-Ras by H2O2,[1],abolished
CC(C)C[C@@H](C=O)NC(=O)[C@H](CC(C)C)NC(=O)[C@H](CC(C)C)NC(=O)OCc1ccccc1 [MG132] (Cbz-Leu-Leu-Leu-aldehyde),effect on Ha Ras when administered with PDGF or H2O2,[1]; FIG. 6E,not additive
same,effect on Ha Ras levels,[1]; FIG. 6E,induced
PDGF,duration of induced ROS (return to baseline),"[3]; discussion, cells not given",15 to 30 min
same,half-life of Ha-Ras protein induced by PDGF,[1]; estimated from several experiments,approximately 40 min
same,Ki-Ras decay time,"[1]; of PDGF stimulation, FIG. 4A",3 h
same,time after stimulation at which Ha-Ras decreased to the initial levels,"[1]; primary human fibroblasts, growth factor still present",120 min
same,PDGF stimulation time sufficient to induce Ha-Ras protein,"[1]; quiescent primary human fibroblasts, PDGF 15 ng/ml",15 min
same,duration of PDGFR tyrosine phosphorylation,[4],15 min
same,induction of endothelial cell apoptosis,[5],unable to induce apoptosis
same,PDGF receptor level,[6],down-regulated
COC(=O)[C@H](CCSC)NC(=O)c1ccc(NC[C@@H](N)CS)cc1-c1ccccc1 [FTI-277],effect on ROS induction by SSc IgG in normal fibroblasts,[3],prevented
COc1cc2ncc(-c3ccccc3)nc2cc1OC [AG 1296],effect on ROS induced in Fα cells incubated with SSc IgG,[7],inhibited
O=c1c(-c2ccc(O)cc2)coc2cc(O)cc(O)c12 [genistein],"effect on Ha-Ras induced by H2O2, longer incubation",[1]; [9],inhibited
same,effect on Ha-Ras induction by PDGF,[1]; PDGF 15 ng/ml,inhibited
same,"effect on ERK1/2 induced by H2O2, longer incubation",[2]; [9],inhibited
COc1cccc(-c2cc(=O)c3ccccc3o2)c1N [PD98059],effect on ROS induction by SSc IgG in normal fibroblasts,[3],prevented
same,effect on induction of Ha-Ras by H2O2,"[1]; PD 98059 2 h, U0126 15 min incubation, FIGS. 6A, 6B",abolished
same,effect on Ha-Ras induction by PDGF,[1]; PDGF 15 ng/ml,inhibited
same,effect on oxidative stress-induced apoptosis,[8],inhibited
